# From patent US9271987B2, “Methods and compositions for treating Alzheimer's disease” (Cold Spring Harbor Laboratory, priority 2011, dated 2016)
# “Also recorded” adds a separate entry of the source.
# Legend:
# [1] = tested on: Aβ42-expressing flies (elav-Gal4/Y; UAS-Aβ42/+); assay: Pavlovian olfactory associative immediate memory in Aβ42-expressing flies after drug feeding
# Method: Flies were raised and maintained at room temperature (22-24° C.).
# [2] = tested on: Tg(APPswe.PSEN1dE9) double transgenic mice; assay: Morris water maze in AD-model double transgenic mice; type: in vivo, mouse; settings: for Rescue of memory loss in Morris water maze: 8-month-old mice, lavage once daily from 9 days before training until end of experiments (18 days)
# human EGFR = target: T1, human EGFR (Homo sapiens, UniProt P00533); assay: p-EGFR level in COS-7 cells transfected with human EGFR wt (Western blot); type: cell-based; settings: 15 min; for Level of p-EGFR or activated EGFR after Aβ42 application: 25 μg/ml Aβ42 preparation
# T1 construct: expressed in transfected cells; host or cells: COS-7 (monkey kidney), Lipofectamine 2000, plasmid from Dr. Parsons
# Method: COS-7 cells were transfected with human EGFR^wt plasmid for 48 h, then incubated with 25 μg/ml oligomeric Aβ42 preparation for 15 min. Human EGF (0.5 μg/ml) for positive control. N=3.
# COS-7 cells were cultured in normal Dulbecco's Modified Eagle Medium (D-MEM) containing 10% fetal bovine serum (Invitrogen) at 37° C. in 5% CO2. […] Transfection as performed following the Lipofectamine 2000 manuals (Invitrogen). After 48 h, cells were washed with fresh medium once and incubated with 10 or 25 μg/ml Aβ42 oligomers for 15 min at 37° C. in 5% CO2. 0.5 μg/ml human EGF (Sigma) was used as a positive control. Cells were then washed with PBS for 3 times and collected.
# Whole fly head or cells lysates were prepared using a RIPA buffer containing 0.3% SDS, 50 mM Tris-HCl, pH 7.4, 0.5% NP-40, 1% sodium deoxycholate, 150 mM NaCl, 5 mM EDTA, 1 tablet per 50 ml complete protease inhibitor cocktail (Roche Diagnostics). Lysates were diluted in an SDS sample buffer and separated on 10-20% Tris-Tricine gels (Invitrogen), and transferred to nitrocellulose membranes (Invitrogen). The membranes were boiled in PBS for 3 min, blocked with 5% non-fat dry milk and blotted with a first antibody. First antibodies used herein included mouse anti-Aβ42 (6E10, Covance Research Products), mouse anti-dEGFR (Abcam), rabbit anti-hEGFR (Cell Signaling), mouse anti-hEGFR-p (Cell Signaling) and rabbit anti-Actin (Sigma). Data were analyzed with the ImageJ software (National Institutes of Health).
# [3] = EGFR inhibitor 0.01, 0.1, 1, 10 μg/ml, fed 4 hours each day for 7 days, 10-day-old Aβ42-expressing males
Compound,"Aβ42-induced memory loss (immediate memory) [1, 3]",Rescue of memory loss in Morris water maze [2],Level of p-EGFR or activated EGFR after Aβ42 application (human EGFR),other results
"C#Cc1cccc(Nc2ncnc3cc(OCCOC)c(OCCOC)cc23)c1 [Er, N-(3-ethynylphenyl)-6,7-bis(2-methoxyethoxy)quinazolin-4-amine]",prevented the memory loss,,,
"COc1cc2ncnc(Nc3ccc(F)c(Cl)c3)c2cc1OCCCN1CCOCC1 [Ge, N-(3-chloro-4-fluoro-phenyl)-7-methoxy-6-(3-morpholin-4-ylpropoxy)quinazolin-4-amine]",prevented the memory loss,sufficient to rescue the memory loss; also recorded: rescuing effects were observed,,Effect of two-month drug feeding on memory loss ([2]; drug feeding from 6- to 8-month-old): produced a positive effect
CC12CC3CC(C)(C1)CC(N)(C3)C2 [memantine],,unable to improve the memory-loss phenotype,,"Rescue of memory loss in Morris water maze ([2]; listed as Mem): No improvement in memory; Rescue of memory loss in Morris water maze ([2]; listed as momentine): had no effect; Aβ42-induced memory loss (immediate memory) ([1]; memantine 20 μg/ml, fed 4 hours each day for 7 consecutive days, memory at day 10 post-eclosion, male flies): capable of preventing the memory loss"
Aβ42 from oligomeric preparation: Synthetic and recombinant wild type Aβ42 (AnaSpec) incubated at 4° C. for 24 h to form oligomers,,,significantly elevated,Expression levels of EGFRs after Aβ42 application (human EGFR; 25 μg/ml Aβ42 from oligomeric preparation): not affected
monomeric Aβ42 preparation: Aβ42 peptide preparation abundant in monomers,,,opposite effect,
